Assay results published in patent US20230257366A1, “SULFUR-CONTAINING ISOINDOLINE DERIVATIVE, AND PREPARATION METHOD THEREFOR AND MEDICAL USE THEREOF” (JIANGSU HENGRUI PHARMACEUTICALS CO., LTD., priority 2020, published 2023).

These compounds were tested on NCI-H929 cells (assay: NCI-H929 proliferation experiment (CellTiter-Glo, 5 days)). Details: Homo sapiens, 120 h, 5 days incubation, read-out: IC50 values for the inhibition of proliferation of NCI-H929 cells.
Format: cell-based
Protocol: The following method was used to determine the inhibitory activity of the compounds of the present disclosure on the proliferation of NCI-H929 cells. The experimental method was briefly described as follows.
NCI-H929 cells (ATCC, CRL-9068) were cultured in a complete medium (RPMI 1640 medium (Hyclone, SH30809.01) containing 10% fetal bovine serum (Corning, 35-076-CV) and 0.05 mM 2-mercaptoethanol (Sigma, M3148)). On the first day of the experiment, NCI-H929 cells were seeded in a 96-well plate at a density of 6000 cells/well with a complete medium to form 100 μL of cell suspension per well, and 10 μL of test compound prepared in a complete medium and diluted in a gradient was added to each well. The compound was firstly dissolved in DMSO, with an initial concentration of 10 mM, and then subjected to serial dilution at a 5-fold concentration gradient for a total of 9 concentration points, with a blank control of 100% DMSO. Another 5 μL of the compound dissolved in DMSO was added to 95 μL of complete medium, i.e., the compound was diluted 20-fold with the complete medium. Finally the compound diluted in the complete medium at 10 μL/well was added to the cell suspension, wherein the final concentrations of the compound were 9 concentration points obtained by 5-fold gradient dilution starting from 50 μM. A blank control containing 0.5% DMSO was set. The plate was incubated in a cell incubator at 37° C. with 5% CO2 for 5 days. On the sixth day, the 96-well cell culture plate was taken out, added with a CellTiter-Glo® luminescent cell activity detect reagent (Promega, G7573) at 50 μL/well, left to stand at room temperature for 10 min, and read for the luminescence signal values using a multi-mode microplate reader (PerkinElmer, EnVision 2015). IC50 values for the inhibitory activity of the compounds were calculated using Graphpad Prism software, with the results shown in Table 1.
An IC50 of 0.28 nM was found for `N#Cc1ccc(N2CCC(Sc3ccc(COc4cc(F)cc5c4CN([C@H]4CCC(=O)NC4=O)C5=O)cn3)CC2)c(F)c1` [Compound 8, (S)-4-(4-((5-(((2-(2,6-dioxopiperidin-3-yl)-6-fluoro-1-oxoisoindolin-4-yl)oxy)methyl)pyridin-2-yl)thio)piperidin-1-yl)-3-fluorobenzonitrile] in this work.
An IC50 of 0.18 nM was found for `N#Cc1ccc(N2CCC(Sc3ccc(COc4cccc5c4CN([C@H]4CCC(=O)NC4=O)C5=O)c(F)c3F)CC2)c(F)c1` [Compound 10, (S)-4-(4-((4-(((2-(2,6-dioxopiperidin-3-yl)-1-oxoisoindolin-4-yl)oxy)methyl)-2,3-difluorophenyl)thio)piperidin-1-yl)-3-fluorobenzonitrile] in this work.
An IC50 of 0.27 nM was found for `N#Cc1ccc(N2CCC(Sc3ccc(COc4cccc5c4CN([C@H]4CCC(=O)NC4=O)C5=O)cc3Cl)CC2)c(F)c1` [Compound 14, (S)-4-(4-((2-chloro-4-(((2-(2,6-dioxopiperidin-3-yl)-1-oxoisoindolin-4-yl)oxy)methyl)phenyl)thio)piperidin-1-yl)-3-fluorobenzonitrile] in this work.
An IC50 of 0.1 nM was found for `N#Cc1ccc(N2CCC(Sc3ccc(COc4cccc5c4CN([C@H]4CCC(=O)NC4=O)C5=O)cc3)CC2)c(F)c1` [Compound 3, (S)-4-(4-((4-(((2-(2,6-dioxopiperidin-3-yl)-1-oxoisoindolin-4-yl)oxy)methyl)phenyl)thio)piperidin-1-yl)-3-fluorobenzonitrile] in this work.
An IC50 of 0.21 nM was found for `N#Cc1ccc(N2CCC(Sc3ccc(COc4cccc5c4CN([C@H]4CCC(=O)NC4=O)C5=O)c(F)n3)CC2)c(F)c1` [Compound 17, (S)-4-(4-((5-(((2-(2,6-dioxopiperidin-3-yl)-1-oxoisoindolin-4-yl)oxy)methyl)-6-fluoropyridin-2-yl)thio)piperidin-1-yl)-3-fluorobenzonitrile] in this work.
An IC50 of 0.34 nM was found for `N#Cc1ccc(N2CCC(Sc3ccc(COc4cccc5c4CN(C4CCC(=O)NC4=O)C5=O)cc3)CC2)c(F)c1` (centres unmarked) [Compound 1, 4-(4-((4-(((2-(2,6-dioxopiperidin-3-yl)-1-oxoisoindolin-4-yl)oxy)methyl)phenyl)thio)piperidin-1-yl)-3-fluorobenzonitrile] in this work.
An IC50 of 0.34 nM was found for `N#Cc1ccc(N2CCC(Sc3cc(F)c(COc4cccc5c4CN([C@H]4CCC(=O)NC4=O)C5=O)c(F)c3)CC2)c(F)c1` [Compound 18, (S)-4-(4-((4-(((2-(2,6-dioxopiperidin-3-yl)-1-oxoisoindolin-4-yl)oxy)methyl)-3,5-difluorophenyl)thio)piperidin-1-yl)-3-fluorobenzonitrile] in this work.
An IC50 of 0.17 nM was found for `N#Cc1ccc(N2CCC(Sc3ccc(COc4cccc5c4CN([C@H]4CCC(=O)NC4=O)C5=O)cc3F)CC2)c(F)c1` [Compound 4, (S)-4-(4-((4-(((2-(2,6-dioxopiperidin-3-yl)-1-oxoisoindolin-4-yl)oxy)methyl)-2-fluorophenyl)thio)piperidin-1-yl)-3-fluorobenzonitrile] in this work.
An IC50 of 1.13 nM was found for `N#Cc1ccc(N2CC(Sc3ccc(COc4cccc5c4CN([C@H]4CCC(=O)NC4=O)C5=O)cc3)C2)c(F)c1` [Compound 16, (S)-4-(3-((4-(((2-(2,6-dioxopiperidin-3-yl)-1-oxoisoindolin-4-yl)oxy)methyl)phenyl)thio)azetidin-1-yl)-3-fluorobenzonitrile] in this work.
An IC50 of 0.9 nM was found for `N#Cc1ccc(N2CCC(Sc3ccc(COc4cccc5c4CN([C@H]4CCC(=O)NC4=O)C5=O)nc3)CC2)c(F)c1` [Compound 9, (S)-4-(4-((6-(((2-(2,6-dioxopiperidin-3-yl)-1-oxoisoindolin-4-yl)oxy)methyl)pyridin-3-yl)thio)piperidin-1-yl)-3-fluorobenzonitrile] in this work.
An IC50 of 0.22 nM was found for `N#Cc1ccc(N2CCC(Sc3cc(F)c(COc4cccc5c4CN([C@H]4CCC(=O)NC4=O)C5=O)cc3F)CC2)c(F)c1` [Compound 11, (S)-4-(4-((4-(((2-(2,6-dioxopiperidin-3-yl)-1-oxoisoindolin-4-yl)oxy)methyl)-2,5-difluorophenyl)thio)piperidin-1-yl)-3-fluorobenzonitrile] in this work.
An IC50 of 0.08 nM was found for `N#Cc1ccc(N2CCC(Sc3ccc(COc4cccc5c4CN([C@H]4CCC(=O)NC4=O)C5=O)c(F)c3)CC2)c(F)c1` [Compound 5, (S)-4-(4-((4-(((2-(2,6-dioxopiperidin-3-yl)-1-oxoisoindolin-4-yl)oxy)methyl)-3-fluorophenyl)thio)piperidin-1-yl)-3-fluorobenzonitrile] in this work.
An IC50 of 0.61 nM was found for `N#Cc1ccc(N2CCC(Sc3c(F)cc(COc4cccc5c4CN([C@H]4CCC(=O)NC4=O)C5=O)cc3F)CC2)c(F)c1` [Compound 12, (S)-4-(4-((4-(((2-(2,6-dioxopiperidin-3-yl)-1-oxoisoindolin-4-yl)oxy)methyl)-2,6-difluorophenyl)thio)piperidin-1-yl)-3-fluorobenzonitrile] in this work.
An IC50 of 0.75 nM was found for `N#Cc1ccc(N2CCC(Sc3ccc(COc4cccc5c4CN([C@H]4CCC(=O)NC4=O)C5=O)cn3)C2)c(F)c1` (stereo partly drawn) [Compound 15, 4-(3-((5-(((2-((S)-2,6-dioxopiperidin-3-yl)-1-oxoisoindolin-4-yl)oxy)methyl)pyridin-2-yl)thio)pyrrolidin-1-yl)-3-fluorobenzonitrile] in this work.
An IC50 of 1.78 nM was found for `Cc1nc(SC2CCN(c3ccc(C#N)cc3F)CC2)ccc1COc1cccc2c1CN([C@H]1CCC(=O)NC1=O)C2=O` [Compound 13, (S)-4-(4-((5-(((2-(2,6-dioxopiperidin-3-yl)-1-oxoisoindolin-4-yl)oxy)methyl)-6-methylpyridin-2-yl)thio)piperidin-1-yl)-3-fluorobenzonitrile] in this work.
An IC50 of 4.36 nM was found for `N#Cc1ccc(N2CCC(Sc3ccc(COc4cccc5c4C(=O)N(C4CCC(=O)NC4=O)C5=O)cc3)CC2)c(F)c1` (centres unmarked) [Compound 2, 4-(4-((4-(((2-(2,6-dioxopiperidin-3-yl)-1,3-dioxoisoindolin-4-yl)oxy)methyl)phenyl)thio)piperidin-1-yl)-3-fluorobenzonitrile] in this work.
An IC50 of 0.13 nM was found for `N#Cc1ccc(N2CCC(Sc3ncc(COc4cccc5c4CN([C@H]4CCC(=O)NC4=O)C5=O)cn3)CC2)c(F)c1` [Compound 7, (S)-4-(4-((5-(((2-(2,6-dioxopiperidin-3-yl)-1-oxoisoindolin-4-yl)oxy)methyl)pyrimidin-2-yl)thio)piperidin-1-yl)-3-fluorobenzonitrile] in this work.
